Measured values: PubChem BioAssay (NCI)
Values joined by “and” are separate entries in the source; they are usually repeats but may differ in a detail not shown here. Equal values may be shown once.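 96-well plates; 48 h exposure; 5 concentrations. Endpoints by linear interpolation between flanking doses. Not reached: highest tested concentration assigned. GI50 is the concentration that inhibits growth by half. Definition used: TGI = concentration required for complete inhibition of growth.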

What was measured:
Assay in all cases: inhibition of tumour cell growth, NCI panel, 48 h
SF-539 CNS = test system: SF-539 CNS
NCI-H460 lung = test system: NCI-H460 lung
A549 NSCLC = test system: A549 NSCLC
SNB-19 CNS = test system: SNB-19 CNS
HCT-116 colon = test system: HCT-116 colon
SK-OV-3 ovarian = test system: SK-OV-3 ovarian
786-0 renal = test system: 786-0 renal
MDA-N = test system: MDA-N
OVCAR-8 ovarian = test system: OVCAR-8 ovarian
HS 578T breast = test system: HS 578T breast

Compound	TGI (SF-539 CNS) [µM]	TGI (NCI-H460 lung) [µM]	TGI (A549 NSCLC)	TGI (SNB-19 CNS)	TGI (HCT-116 colon)	TGI (SK-OV-3 ovarian)	TGI (786-0 renal)	TGI (MDA-N) [µM]	TGI (OVCAR-8 ovarian)	TGI (HS 578T breast) [µM]	GI50 (MDA-N) [µM]	GI50 (SF-539 CNS) [µM]	GI50 (NCI-H460 lung) [µM]	GI50 (A549 NSCLC) [µM]	GI50 (SK-OV-3 ovarian) [µM]	GI50 (SNB-19 CNS) [µM]	GI50 (HCT-116 colon) [µM]	GI50 (HS 578T breast) [µM]	GI50 (OVCAR-8 ovarian) [µM]
CCN1CCC(O)(/C=C/c2ccc(OC)cc2)C(C(=O)/C=C/c2ccc(OC)cc2)C1 (centres undefined)	27.8	27.6	34 µM	29.9 µM	14.7 µM	22.5 µM	12.4 µM												
CC(=O)Nc1ccccc1NC1CC(C)N(c2ccccc2)N1C(C)=O (centres undefined)			> 10 µM			> 10 µM	> 10 µM	> 10	> 10 µM										
O=C(O)C(=O)/C=C(\O)c1ccc(Br)cc1		> 100	> 100 µM	> 100 µM	> 100 µM	> 100 µM	> 100 µM	> 100	> 100 µM	> 100									
COc1ccc2c(c1)OC[C@@H]1c3cc(O)c(OCc4ccccc4)cc3O[C@H]21	> 100	35.7	97.1 µM	> 100 µM	> 100 µM	> 100 µM	> 100 µM		> 100 µM										
Brc1ccc2c(-c3csc(-c4c[nH]c5ccccc45)n3)c[nH]c2c1	30.8	34.4	29.2 µM	31.7 µM	29.6 µM	44.8 µM	33.8 µM	39.8	33.1 µM		19.2								
C[N+](C)(CCNC(=O)c1cccc2cc3ccccc3nc12)Cc1ccc([N+](=O)[O-])s1			> 25 µM		> 25 µM	> 25 µM	> 25 µM	> 25	> 25 µM	> 25									
COc1ccc(C[C@H](N)C(=O)N2C[C@@H](CO)C[C@@H](n3ccc(=O)[nH]c3=O)C2)cc1	> 100	> 100	> 100 µM	> 100 µM	> 100 µM	> 100 µM			> 100 µM										
COC(=O)C1=C(C(=O)OC)SC2(S1)C(C(=O)OC)=C(C(=O)OC)Sc1c2ssc1=NC(C)(C)C	2.69		8.69 µM	9.77 µM	2.03 µM	18.1 µM	2.62 µM		3.77 µM	18.5									
C=CCn1c(-c2ccc([N+](=O)[O-])cc2)csc1=N		> 100	> 100 µM	> 100 µM	> 100 µM	> 100 µM	> 100 µM	> 100	> 100 µM	> 100									
O=C(N/N=C/c1cc(Br)cc(Br)c1[O-])c1ccccc1O.O=C(N/N=C/c1cc(Br)cc(Br)c1[O-])c1ccccc1O.[Ni+2]	0.72	1.66	2.33 µM	3.67 µM	1.55 µM	1.95 µM			1.34 µM										
COc1ccc(N2NC(c3ccccc3)(c3ccccc3)C(C)C2=O)cc1 (centres undefined)	> 100	> 100	> 100 µM	> 100 µM	> 100 µM			> 100	> 100 µM	> 100									
COc1ccc(N2C(=O)C3c4[nH]c5ccccc5c4C4CCCCC4C3C2=O)cc1 (centres undefined)	32.8	> 100	51.9 µM	> 100 µM	22 µM	52.7 µM	23.8 µM		28.6 µM										
Cc1nc2ccccc2c(/C=C/c2ccc(Cl)cc2)c1C(=O)/C=C/c1ccccc1	3.11	3.14	6.54 µM									1.7	1.39	2.24					
CCOC(=O)c1c(-c2cccc3ccccc23)c(C#N)c(=S)n(C2OC(COC(C)=O)C(OC(C)=O)C(OC(C)=O)C2OC(C)=O)c1C (centres undefined)	> 100	> 100	> 100 µM	> 100 µM	> 100 µM	> 100 µM	> 100 µM	> 100	> 100 µM										
CCOC(=O)C(NC(=O)OC(C)(C)C)C(=O)OCC		> 100	> 100 µM	> 100 µM	> 100 µM	> 100 µM	> 100 µM		> 100 µM	> 100									
Cc1ccc(CCC(=O)C(=O)O)s1	> 100	> 100	> 100 µM	> 100 µM	> 100 µM	> 100 µM			> 100 µM										
NCCCNCCCCN1CC1	3.4	> 100	> 44.5 µM	> 23.8 µM	> 100 µM			> 100		66.5									
Cc1sc2nc3n(c(=O)c2c1C)N=CN(c1ccc(F)cc1)C3		> 100	> 100 µM	> 100 µM	49 µM	> 100 µM	38.3 µM	> 100	> 100 µM	79.2									
Fc1cc(-c2cc(-c3ccc4c(c3)OCO4)n[nH]2)c(Cl)cc1Cl	6.24	14.6	7.86 µM	12.9 µM	4.17 µM	5.44 µM	3.59 µM		3.41 µM	> 45.4									

Compound	TGI (SF-539 CNS) [µM]	TGI (NCI-H460 lung) [µM]	TGI (A549 NSCLC)	TGI (SNB-19 CNS)	TGI (HCT-116 colon)	TGI (SK-OV-3 ovarian)	TGI (786-0 renal)	TGI (MDA-N) [µM]	TGI (OVCAR-8 ovarian)	TGI (HS 578T breast) [µM]	GI50 (MDA-N) [µM]	GI50 (SF-539 CNS) [µM]	GI50 (NCI-H460 lung) [µM]	GI50 (A549 NSCLC) [µM]	GI50 (SK-OV-3 ovarian) [µM]	GI50 (SNB-19 CNS) [µM]	GI50 (HCT-116 colon) [µM]	GI50 (HS 578T breast) [µM]	GI50 (OVCAR-8 ovarian) [µM]
COc1ccc2nc3cc(Cl)ccc3c(NCCNc3c4ccc(Cl)cc4nc4ccc(OC)cc34)c2c1						3.13 µM									1.73				
CC1=NN(c2nc(N)nc(CF)n2)C(C)(C)C1	> 100	> 100		> 100 µM	> 100 µM	> 100 µM	> 100 µM		> 100 µM	> 100									
COc1ccc(-c2nn(-c3ccc(NC(=O)Nc4ccc(Cl)c(C(F)(F)F)c4)cc3)cc2-c2ccncc2)cc1Cl	4	3.36	> 100 µM	11 µM	2.69 µM				20.7 µM	4.22		1.53	1.4	1.2		2.35	1.1	1.1	2.02
NC(CSSCC(N)Cc1ccccc1)Cc1ccccc1 (centres undefined)		> 100	> 100 µM	> 100 µM	> 100 µM	> 100 µM	> 100 µM		> 100 µM										
C=C1CN(C2=NCCO2)C1	> 100	> 100	> 100 µM	> 100 µM	> 100 µM		> 100 µM	> 100	> 100 µM	> 100									
COC(=O)C(NC(=O)c1ccccc1)C(c1ccc(Cl)cc1)P(=O)(OC)OC (centres undefined)	> 100	> 100	> 100 µM	> 100 µM	> 100 µM	> 100 µM			> 100 µM										
CCC[C@@H]1C(=O)N=C(N)N1C(=O)OCc1ccccc1		> 100		> 100 µM	> 100 µM		> 100 µM	> 100	> 100 µM	> 100									
C=CC(C)(C)C(=C)C(=O)Nc1ccccc1I		> 100	> 100 µM	> 100 µM	> 100 µM	> 100 µM	> 100 µM	> 100	> 100 µM	> 100									
C=C(c1ccccc1)c1ccccc1-c1cc(-c2ccccc2)cc(-c2ccccc2)n1	> 100	> 100	> 100 µM	> 100 µM	> 100 µM		> 100 µM	> 100	> 100 µM	> 100									
O=c1[nH]c(=S)c2cc3c(=S)[nH]c(=O)n(CCO)c3nc2n1CCO	> 100	> 100	> 100 µM	> 100 µM	> 100 µM	> 100 µM	> 100 µM	> 100	> 100 µM										
COC1OC2=CCC3C(=O)NC(=O)C3C2[C@H](OCc2ccccc2)C1OCc1ccccc1 (some centres undefined)	31	32.6	40.1 µM		3.21 µM	30.8 µM			3.07 µM										
Cc1ccc(NC(=O)CSC(N)=O)cc1C	> 100	> 100	> 100 µM	> 100 µM	> 100 µM		> 100 µM		> 100 µM	> 100									
C/C=C(/C)C(=O)O[C@H]1[C@H](O)CC(c2ccc3c(c2O)C(O)=C2C(=O)C4(OC)C(O)=C(C(N)=O)C(=O)[C@H](CC(=O)c5ccccc5O)C4CC2[C@@]3(C)OC)O[C@@H]1C (some centres undefined)	0.101		4.6 µM and 1.52 µM	1.68 µM and 1.06 µM	0.0262 µM and 0.0189 µM	5.72 µM and 2.05 µM	1.43 µM and 1.35 µM	2.09	1.67 µM and 0.713 µM										
CCOC(=O)N1CCC(=C2c3ccc(Cl)cc3CCc3cccnc32)CC1		18.9	> 100 µM		32.4 µM	29.1 µM	33.4 µM	16.8	32.5 µM	> 100									
COc1ccc(C2=NN=C3C(c4ccccc4)=Nc4ccccc4N3C2)cc1	> 100	> 100	> 100 µM	> 100 µM	71.2 µM	> 100 µM	> 100 µM	> 100											
CCCC(=O)[O-].N.N.N.N.N.[Co+3].[O-][Cl+3]([O-])([O-])[O-]	> 100	> 100	> 100 µM	> 100 µM	> 100 µM	> 100 µM	> 100 µM		> 100 µM										
COc1ccc(Sc2ccccc2N)cc1	> 100	> 100	> 100 µM	> 100 µM	> 100 µM	> 100 µM			> 100 µM										
Oc1ccc(Cl)cc1C1=NC(/N=C\c2ccccc2)=NC(c2ccccc2)C1 (centres undefined)	> 100		> 100 µM		> 100 µM	74.7 µM	> 100 µM		> 100 µM	> 100									
